Results as given in patent publication US20230137943A1, “PHOTOPROXIMITY PROFILING OF PROTEIN-PROTEIN INTERACTIONS IN CELLS” (The University of Chicago, priority 2019, published 2023).

Experiments:
KEAP1-SNAP protein = target: T1, KEAP1-SNAP protein (Homo sapiens, UniProt P16455+Q14145, A127T/A154D/C150Q/C62A/E30R/G131K/G132T/G153L/K125A/K32I/L33F/M134L/N157G/Q115S/Q116H/R128A/R135S/S151G/S152D/S159E); experiment: Probe dose response: labeling of KEAP1-SNAP fusion in live cells (Western blot); type: cell-based
T1 construct: expressed in transfected cells; host or cells: HEK293T, lentiviral transduction with pDC-006, blasticidin selection
Description: PP1 close response and viability assay: Dose response—Each well of a 6-well plate was seeded with 300,000 HEK293T cells stably expressing either SNAP-FLAG or KEAP-SNAP. After reaching ˜90% confluency the growth media was removed, cells washed with DPBS, and treated with varying concentrations (0, 0.5, 1, 5, 15, 45 μM) of photoproximity probe PP1 in 500 μL serum-free DMEM for 2 hours at 37° C. Post treatment, media was aspirated and non-reacted probe washed out with 3 mL full DMEM over 40 minutes, changing the media twice. Cells were harvested, washed, and lysed in DPBS containing protease inhibitor using a tip sonicator. Lysate was normalized to 1 mg/mL then diluted with loading buffer and run on SDS-PAGE gel that was transferred by western blot to nitrocellulose. The nitrocellulose membrane was stained for biotin and Flag-Tag using streptavidin IR dye (Li-cor #926-32230; Li-cor Biosciences, Lincoln, Nebr., United States of America) and anti-Flag (Sigma #F3165, Sigma-Aldrich, St. Louis, Mo., United States of America; Li-cor #926-68072, Li-cor Biosciences, Lincoln, Nebr., United States of America). Fluorescence images were collected using an Odyssey infrared imager (Li-cor Biosciences, Lincoln, Nebr., United States of America).
Both C- and N-terminal SNAP-Tag fusions of full-length, human KEAP1, in each case separated by a short linker were cloned. […] Both C- and N-terminal SNAP fusions were functional, as indicated by dose-dependent labeling with PP1 in live cells. […] Finally, it was expected that identification of probe-labeled binding partners, and therefore proteins proximal to KEAP1 in cells, would be improved by quantitative proteomic differentiation of enriched vs. background proteins. Therefore, SILAC-labeled cultures expressing both N-terminal (referred to as SNAP-KEAP1) and C-terminal (referred to as KEAP1-SNAP) fusion proteins with light and heavy arginine and lysine were prepared. Matched cultures of heavy and light cells, each expressing the same SNAP-KEAP1 or KEAP1-SNAP construct, were then treated with PP1 probe or vehicle for 2 hr. […]

[1] = tested on: HEK293T cells stably expressing SNAP-FLAG; experiment: Viability assay (CellTiter-Glo, relative ATP content); type: cell-based, human; conditions: 2 hours at 37° C.
Description: Viability assay: HEK293T cells stably expressing SNAP-FLAG were seeded with at 5,000 cells per well in 50 μL DMEM in a 96-well plate. Twenty-four hours later, cells were treated with a varying concentration (0, 0.5, 1, 5, 15, 45 μM in sextuplicate) of photoproximity probe PP1 in a total volume of 100 μL DMEM. After 2 hours at 37° C., a 100 μL of CellTiter-Glo® (Promega Corporation, Madison, Wis., United States of America; 5-fold DPBS dilution) was added and the plate imaged using a SYNERGY™ Neo HST plate reader (BioTek, Winooski, Vt., United States of America).
To determine if AC1 affects cell viability, a viability assay was performed. Briefly, HEK293T cells stably expressing Snap-Flag were seeded at 5,000 cells per well in 100 μL DMEM in a 96-well plate. Upon >90% confluency, media was gently removed and cells were treated with a varying concentration (0, 1, 5, 10, 15, 20, 50 uM) in sextuplicate of AC-1 in a total volume of 75 μL DMEM. After 2 hours at 37° C., media was aspirated and cells were gently washed with […] of serum free DMEM. […] Luminescence was recorded using a SYNERGY™ Neo HST plate reader (BioTek, Winooski, Vt., United States of America).
HEK293T cells stably expressing Snap-Flag were seeded at 5,000 cells per well in 100 μL DMEM in a 96-well plate. […] Luminescence was recorded using a SYNERGY™ Neo HST plate reader (BioTek, Winooski, Vt., United States of America).

T1 sequence (Q14145+P16455 fused with the stated changes): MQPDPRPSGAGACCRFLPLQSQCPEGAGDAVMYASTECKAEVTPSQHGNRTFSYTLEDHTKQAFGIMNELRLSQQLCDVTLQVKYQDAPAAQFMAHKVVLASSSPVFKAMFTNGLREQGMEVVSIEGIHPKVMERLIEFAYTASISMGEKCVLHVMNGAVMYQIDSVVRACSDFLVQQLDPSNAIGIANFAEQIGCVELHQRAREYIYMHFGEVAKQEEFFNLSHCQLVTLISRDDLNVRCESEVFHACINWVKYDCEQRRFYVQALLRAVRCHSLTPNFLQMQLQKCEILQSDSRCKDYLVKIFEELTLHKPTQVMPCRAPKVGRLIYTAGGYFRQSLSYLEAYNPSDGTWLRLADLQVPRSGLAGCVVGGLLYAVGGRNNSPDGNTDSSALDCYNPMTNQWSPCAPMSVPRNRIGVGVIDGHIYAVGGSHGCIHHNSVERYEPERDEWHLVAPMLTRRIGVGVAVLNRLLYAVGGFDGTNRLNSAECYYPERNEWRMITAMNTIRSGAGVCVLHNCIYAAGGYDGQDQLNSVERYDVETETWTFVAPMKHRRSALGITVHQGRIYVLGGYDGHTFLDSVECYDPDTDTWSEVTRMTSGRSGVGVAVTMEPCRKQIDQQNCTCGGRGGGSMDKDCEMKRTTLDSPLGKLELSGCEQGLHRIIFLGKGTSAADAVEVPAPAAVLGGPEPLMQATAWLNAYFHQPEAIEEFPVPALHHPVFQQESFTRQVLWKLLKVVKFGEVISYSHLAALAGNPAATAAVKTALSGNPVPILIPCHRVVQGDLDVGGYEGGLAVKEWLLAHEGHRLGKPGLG

| Concentration at which protein is labeled (KEAP1-SNAP protein; AC1 0-50 μM, 1 or 2 hours, live HEK293T cells) | Cell permeability (KEAP1-SNAP protein; AC1, biotin-labeling of SNAP-FLAG-KEAP1 in live HEK293T cells) | EC50 of KEAP1-SNAP fusion labeling (KEAP1-SNAP protein; PP1, live HEK293T cells, 2 hr, not irradiated) | SMILES | Cell growth or viability ([1]; AC1 0-50 uM) | Cell viability ([1]; PP1 0-45 μM (saturating doses)) |
| --- | --- | --- | --- | --- | --- |
| low micromolar concentrations | cell permeable | – | COc1cc(COC(=O)NC(CCCCNC(=O)CCC2(C)N=N2)C(=O)NCCCCC2SCC3NC(=O)NC32)c([N+](=O)[O-])cc1OCCCC(=O)NCc1ccc(COc2nc(N)nc3[nH]cnc23)cc1 (centres unmarked) [AC1] | does not impair cell growth or viability | – |
| – | – | low micromolar | COc1cc(C(C)OC(=O)NC(CCCCNC(=O)CCC2(C)N=N2)C(=O)NCCCCCNC(=O)CCCCC2SCC3NC(=O)NC32)c([N+](=O)[O-])cc1OCCCC(=O)NCc1ccc(COc2nc(N)nc3[nH]cnc23)cc1 (centres unmarked) [PP1] | – | not affected |
